Data taken from US7582447B2, “DNA encoding a testicular carnitine transporter” (Human Cell Systems, Inc., priority 2001, dated 2009).

T1: CT2 (Homo sapiens, UniProt Q86VW1)
T1 construct: a cRNA (RNA complementary to cDNA) was prepared in vitro from a plasmid containing the CT2cDNA; expressed in transfected cells; host or cells: Xenopus laevis oocytes injected with CT2 cRNA
T1 sequence (Q86VW1 1-543 isoform Q86VW1-2): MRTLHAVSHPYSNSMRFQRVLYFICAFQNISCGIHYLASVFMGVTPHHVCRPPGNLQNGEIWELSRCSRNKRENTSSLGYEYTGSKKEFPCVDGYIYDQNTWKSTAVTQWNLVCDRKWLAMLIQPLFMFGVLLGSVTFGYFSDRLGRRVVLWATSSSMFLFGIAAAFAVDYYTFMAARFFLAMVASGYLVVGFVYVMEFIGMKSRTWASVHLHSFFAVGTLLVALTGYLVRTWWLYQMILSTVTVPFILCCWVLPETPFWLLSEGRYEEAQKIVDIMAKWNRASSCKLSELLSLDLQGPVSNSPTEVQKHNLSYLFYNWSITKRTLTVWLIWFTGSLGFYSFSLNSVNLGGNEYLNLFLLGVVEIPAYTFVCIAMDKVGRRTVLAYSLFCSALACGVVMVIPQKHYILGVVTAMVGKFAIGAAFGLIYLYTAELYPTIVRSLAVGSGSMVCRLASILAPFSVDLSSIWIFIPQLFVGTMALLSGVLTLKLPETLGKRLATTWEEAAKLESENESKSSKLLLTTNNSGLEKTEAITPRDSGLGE


Legend:
Assay type in all cases: cell-based
[1] = biological target: T1, CT2; assay: inhibition experiment: ^3H-carnitine uptake by oocytes injected with CT2 cRNA in the presence of unlabelled compounds; settings: for inhibition of ^3H-carnitine transport by CT2: 50 nM ^3H-carnitine, 5 μM or 50 μM unlabelled compound, FIG. 4
Procedure: (§1) The thus-obtained cRNA was injected into oocytes of a platanna in accordance with the already reported method (Sekine, T. et al., J. Biol. Chem., Vol. 272, pp. 18526-18529, 1997), and an uptake experiment by radioactive labeled L-carnitine was conducted on the oocytes.
(3) An influence to be exerted by D-Carnitine, which is an isomer of L-carnitine, on the L-carnitine transport by CT2 was studied.
(6) In order to study further on the substrate selectivity of CT2, in the ^3H-carnitine uptake experiment system by oocytes into which CT2cRNA was injected, various carnitine analogs were added to the system and its influences were investigated (inhibition experiment).
The ^3H-carnitine uptake experiment was performed in accordance with the above-described method using oocytes into which CT2cRNA was injected. 50 nM ^3H-carnitine uptake was measured in the presence or absence of 5 μM or 50 μM of various compounds (unlabelled).

[2] = biological target: T1, CT2; assay: uptake experiment of radioactive labeled substrates by oocytes injected with human CT2 cRNA; settings: platanna oocytes injected with CT2 cRNA; FIG. 1A
Procedure: It is possible to confirm the ability to transport (uptake) carnitine into a cell by expressing a cRNA prepared from the obtained CT2cDNA by introducing the cRNA into an oocyte and measuring a substrate uptake into the cell employing an ordinary uptake experiment (Sekine, T et al., Biochem. Biophis. Res. Commun., Vol. 251, pp. 586-591, 1998) wherein carnitine is used as a substrate.
Next, a cRNA (RNA complementary to cDNA) was prepared in vitro from a plasmid containing the CT2cDNA by using a T7RNA polymerase (see Sekine, T., et al., J. Biol. Chem., Vol. 272, pp. 18526-18529, 1997).
as §1
A concentration dependence of the carnitine transport by CT2 was studied through an investigation of changes in amounts of uptake of various concentration carnitines by CT2. The uptake experiment of radioactive labeled carnitines was performed by using oocytes into which the CT2cRNA was injected and in accordance with the above-described method.

[3] = substrate: C[N+](C)(C)C[C@H](O)CC(=O)[O-]; assay: as above; settings: other: Michaelis-Menten kinetics, oocytes injected with CT2cRNA; FIG. 2A

Molecule | inhibition of ^3H-carnitine transport by CT2 [1] | uptake of radioactive labeled substrate by oocytes which expressed the CT2 [2] | also measured
CC(=O)OC(CC(=O)[O-])C[N+](C)(C)C (racemic) [acetyl DL-carnitine] | significantly inhibited | – | –
C[N+](C)(C)C[C@@H](O)CC(=O)[O-] [D-carnitine] | significantly inhibited | – | inhibition of the L-carnitine transport by CT2 (concentration dependence) ([1]; oocytes injected with CT2 cRNA, FIG. 2B): inhibited the L-carnitine transport by CT2 in a concentration dependent manner; Ki ([1]; oocytes injected with CT2 cRNA, FIG. 2B, read-out: Ki value, inhibition of the L-carnitine transport by CT2): ~30.1 µM
C[N+](C)(C)C[C@H](O)CC(=O)[O-] [L-carnitine] | – | exhibit ^3H-L-carnitine uptake | –
CC(=O)O[C@H](CC(=O)[O-])C[N+](C)(C)C [acetyl L-carnitine] | significantly inhibited | – | –
C[N+](C)(C)CC(=O)O [betaine] | significantly inhibited | – | –
CCCCCCCC(=O)O[C@H](CC(=O)[O-])C[N+](C)(C)C [octanoyl L-carnitine] | significantly inhibited | – | –
Nc1ccc(C(=O)NCC(=O)O)cc1 [paraamino hippuric acid] | did not show inhibition effect | not observed | –
CC[N+](CC)(CC)CC [tetraethylammnonium, tetraethyl ammonium] | did not show inhibition effect | not observed | –
CT2 (Homo sapiens) (protein, a cRNA (RNA complementary to cDNA) was prepared in vitro from a plasmid containing the CT2cDNA; expressed in transfected cells; host or cells: Xenopus laevis oocytes injected with CT2 cRNA) MRTLHAVSHPYSNSMRFQRVLYFICAFQNISCGIHYLASVFMGVTPHHVCRPPGNLQNGEIWELSRCSRNKRENTSSLGYEYTGSKKEFPCVDGYIYDQNTWKSTAVTQWNLVCDRKWLAMLIQPLFMFGVLLGSVTFGYFSDRLGRRVVLWATSSSMFLFGIAAAFAVDYYTFMAARFFLAMVASGYLVVGFVYVMEFIGMKSRTWASVHLHSFFAVGTLLVALTGYLVRTWWLYQMILSTVTVPFILCCWVLPETPFWLLSEGRYEEAQKIVDIMAKWNRASSCKLSELLSLDLQGPVSNSPTEVQKHNLSYLFYNWSITKRTLTVWLIWFTGSLGFYSFSLNSVNLGGNEYLNLFLLGVVEIPAYTFVCIAMDKVGRRTVLAYSLFCSALACGVVMVIPQKHYILGVVTAMVGKFAIGAAFGLIYLYTAELYPTIVRSLAVGSGSMVCRLASILAPFSVDLSSIWIFIPQLFVGTMALLSGVLTLKLPETLGKRLATTWEEAAKLESENESKSSKLLLTTNNSGLEKTEAITPRDSGLGE | – | – | Km [3]: 20.3 µM
